This note sets out measurements from patent US20170290814A1, “METHODS OF TREATMENT OF CHOLESTASIS AND FIBROSIS” (GENFIT, priority 2016, published 2017).

Entries after “also recorded” stand apart in the source; their conditions may differ.

The subject of the assay is TGFβ1-induced expression of α-SMA protein in human HSC. Briefly: α-SMA ELISA in TGFβ1-activated human hepatic stellate cells. Type of assay: cell-based. Particulars: TGFβ1 1 ng/ml, 48 h. How it is done:
Serum-deprived HSC were preincubated for 1 hour with RM-5061 before the activation with the profibrogenic cytokine TGFβ1 (1 ng/ml). After 48 hours of incubation, the α-SMA content was measured by ELISA. The obtained values were transformed into percentage inhibition over TGFβ1 control. Data are presented as mean (quadruplicates)±standard error of the mean (SEM). Statistical analyses were performed by one-way ANOVA followed by Bonferroni post-hoc tests, using Sigma Plot 11.0 software. [*: p<0.05; **: p<0.01; ***: p<0.001 (comparison versus TGFβ1 1 ng/mL group)]. The curve fitting and the calculation of half maximal inhibitory concentration (IC50) were performed with XLFit software 5.3.1.3.
Serum-deprived HSC were preincubated for 1 hour with Cpd.5 before the activation with the profibrogenic cytokine TGFβ1 (1 ng/ml). After 48 hours of incubation, the expression of α-SMA was measured by ELISA. The obtained values were transformed into percentage inhibition over TGFβ1 control. Data are presented as mean (triplicates)±standard deviation (SD). Statistical analyses were performed by one-way ANOVA followed by Bonferroni post-hoc tests, using Sigma Plot 11.0 software. [*: p<0.05; **: p<0.01; ***: p<0.001 (comparison versus TGFμ1 1 ng/mL group)]. The curve fitting and the calculation of half maximal inhibitory concentration (IC50) were performed with XLFit software 5.3.1.3.
The human primary hepatic stellate cells (hHSC) (Innoprot) were cultured in STeCM medium (ScienCell cat #5301) that was supplemented with 2% fetal bovine serum (FBS, ScienCell cat #0010), 1% penicillin/streptomycin (ScienCell cat #0503) and stellate cell growth supplement (SteCGS; ScienCell cat #5352). Cell culture flasks were coated with Poly-L Lysine (Sigma cat #P4707) for a better adherence.
The human primary hepatic stellate cells (hHSC) (Innoprot) were cultured under standard conditions, as described above. The cells were subsequently plated at a density of 2×10^4cells/well or 6,5×10^3 cells/well into 96-well or 384-well plates respectively. The next day, cell-culture medium was removed, and cells were washed with PBS (Invitrogen cat #14190). Then, hHSC were deprived for 24 hours in serum-free and SteCGS-free medium. For the treatments with compounds of formula (I), the serum-deprived hHSC were preincubated for 1 hour with the compounds followed by addition of the profibrogenic stimuli TGFβ1 (PeproTech cat #100-21, 1 ng/mL) in serum-free and SteCGS-free medium for an additional 48 hour period. At the end of treatment, the cell culture supernatants of treated-HSC were transferred into a new plate before storage at −20° C.The cells were washed with PBS (Invitrogen, cat #14190) before the addition of lysis buffer (CelLytic™ MT reagent; Sigma #C3228). Plates were then incubated for 30 min on ice using a plate shaker, before storage at −20° C.
The level of α-SMA was measured using a Sandwich ELISA. Briefly, the wells of an ELISA plate were first coated with the capture antibody (mouse monoclonal anti-ACTA2, Abnova) at 4° C. overnight. After 3 washes in PBS +0.2% Tween 20, a blocking solution consisting of PBS +0.2% BSA was added for one hour followed by another washing cycle. The cell lysates were transferred into the wells for binding to the capture antibody for a period of 2 h at room temperature. After the washing procedure, the detection antibody (biotinylated mouse monoclonal anti-ACTA2, Abnova) was added for 2 hours at room temperature followed by 3 washes. For the detection, an HRP-conjugated Streptavidin (R&D Systems cat #DY998) was first applied for 30 min at room temperature. After washing, the HRP substrate TMB (;BD, #555214) was added and incubated for 7 min at room temperature in the dark. Upon oxidation, TMB forms a water-soluble blue reaction product that becomes yellow with addition of sulfuric acid (solution stop), enabling accurate measurement of the intensity at 450 nm using a spectrophotometer. […]
On the technique in general: An ELISA detects its analyte on a solid surface through an enzyme-linked reagent.

For the compound `CC(C)(C)[C@H](N)C(=O)Oc1ccccc1C(=O)Nc1ncc([N+](=O)[O-])s1` [RM-5061, (S)-2-(5-nitrothiazol-2-ylcarbamoyl)phenyl 2-amino-3,3-dimethylbutanoate], the “Max % I Over TGFβ, αSMA” value was found to be 40% and the “effect on TGFβ1-induced α-SMA level in human HSC” value is “dose-dependently reduced; also recorded: inhibits”. In the case of `[2H]C([2H])([2H])C(=O)Oc1ccccc1C(=O)Nc1ncc([N+](=O)[O-])s1` [Cpd.5, 2-[(5-nitro-1,3-thiazol-2-yl)carbamoyl]phenyl (d3)ethanoate], the “effect on TGFβ1-induced α-SMA level in human HSC” value is reported as “inhibits”.
